The values below come from US20250207124A1, “COMPOSITIONS AND METHODS FOR EXPRESSING SYNTHETIC GENETIC ELEMENTS ACROSS DIVERSE MICROORGANISMS” (priority 2022, published 2025).

This test relates to E. coli in vitro translation reaction. Put plainly: PURExpress in vitro transcription/translation of a GFP reporter. As to conditions: read-out: half-maximal inhibition (IC50) of translation of a GFP reporter; PURExpress (NEB) protein synthesis system; DNA encoding eGFP; endpoint fluorescence after 4 hours.

Procedure: The PureExpress kit (NEB) was used in accordance with manufacture's protocol to assay for the in-vitro production of GFP. For each sample a 25 uL reaction was performed containing 100 ng DNA or 500 ng RNA template encoding GFP (transcription in this kit is via T7 RNA Polymerase), plus indicated amounts of purified compound dissolved in H2O. Reactions were loaded into a white 384 well plate and production of fluorescent GFP protein was monitored with a Synergy Ht Plate Reader (Bio-tek). Fluorescence reached an endpoint at 4 hours. To produce DNA template, a PCR product of the pT7-GFP gene was amplified (Kapa HiFi Polymerase) and purified by gel electrophoresis followed by gel purification (Qiagen). To produce RNA template, the DNA PCR product was transcribed with the HiScribe T7 High Yield RNA Synthesis kit (NEB), treated with DNasel, and purified by the Monarch RNA Purification Kit (NEB). RNA was quantified by Qubit.
To quantify IC50 values for translation inhibition activity (FIG. 14A), raw fluorescence values were linearly converted to percent activity. […] Graphpad Prism was used to plot a hyperbolic non-linear regression.

For orientation: IC50 means the concentration that gives 50% inhibition. As to `CC[C@H]1OC(=O)[C@H](C)[C@@H](O[C@H]2C[C@@](C)(OC)[C@@H](O)[C@H](C)O2)[C@H](C)[C@@H](O[C@@H]2O[C@H](C)C[C@H](N(C)C)[C@H]2O)[C@](C)(O)C[C@@H](C)C(=O)[C@H](C)[C@@H](O)[C@]1(C)O` [erythromycin], the concentration for half-maximal inhibition (IC50) is 2 µM.
